One compound from publication PMC10704437, “Sterol-activated amyloid beta fibril formation” (The Journal of Biological Chemistry, 2023) can be followed below.

The test has as its target T1, Aβ42 (Homo sapiens, UniProt P05067).
T1 construct: Small red spheres mark the Aβ42 peptide C-terminal residue, A42; purchased Sigma-Aldrich Corp
Briefly: Aβ42 fibril formation versus CS percentage (ThT). Format: biochemical. Conditions: [CS]+[CH] 20 μM, Aβ42 1.0 μM. As to the method: To experimentally assess the potential impact of CS on fibril formation in vivo, fibril synthesis was monitored over a series of CS/CH ratios that span the physiological range.
Figure 8 Aβ42fibril formation versus CS percentage. Fibril formation was detected via binding-induced changes in ThT fluorescence (λex = 450 nm, λem = 482 nm). Reaction conditions: Aβ42 (1.0 μM), CS percent (as indicated), [CS] + [CH] (20 μM), ThT (30 μM), DMSO (0.5 % v/v), K2PO4 (50 mM), pH 7.4, 25 °C ± 2 deg. C. Progress curves were performed in triplicate and averaged data are shown. Lines passing through the data represent the behavior predicted by the NEF model using the Table 2 rate constants.

T1 sequence (P05067 672-713 limits assumed): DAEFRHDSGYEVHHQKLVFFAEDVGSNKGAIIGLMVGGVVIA

In the case of `CC(C)CCC[C@@H](C)[C@H]1CC[C@H]2[C@@H]3CC=C4C[C@@H](OS(=O)(=O)O)CC[C@]4(C)[C@H]3CC[C@]12C` [CS, cholesterol 3-sulfate], the fibril formation lag-time entry (0.1% CS) is given as “shortens by several hours”, the fibril formation lag-time result (1% CS) was “nearly halved” and the fibril formation lag-time result (10% CS) is given as “approaches that of pure CS”.
